The values that follow are results of earlier work, collected in patent publication CN114917233A, “一种包含核苷类似物的药物组合物及其制备方法和应用” (Suzhou Vigonvita Life Sciences Co Ltd, priority 2022, dated 2022).

Series [1] deals with SARS-CoV-2.
The test system of series [2] is SARS-CoV-2. Particulars: 5 μM, in vitro.

Take `N#C[C@@]1(c2ccc3c(N)ncnn23)O[C@H](CO)[C@@H](O)[C@H]1O` [GS-441524]: the “oral bioavailability (in words)” value is “低”. Besides, the “inhibition of SARS-CoV-2 replication (in words)” value in series [1] is listed as “具有抑制作用”. Besides, the “inhibition of virus replication compared with RDV (in words)” value in series [1] (versus RDV) is on record as “更强的病毒复制抑制作用”.

As to `CC(C)C(=O)OC[C@H]1O[C@@](C#N)(c2ccc3c(N)ncnn23)[C@H](OC(=O)C(C)C)[C@@H]1OC(=O)C(C)C` [式I化合物, (2R,3R,4R,5R)-2-(4-氨基吡咯并[2,1-f][1,2,4]三嗪-7-基)-2-氰基-5-((异丁酰氧基)甲基)四氢呋喃-3,4-二基双(2-甲基丙酸酯)], the replication inhibition rate in series [2] was 99%.

On to `CCC(CC)COC(=O)[C@H](C)N[P@](=O)(OC[C@H]1O[C@@](C#N)(c2ccc3c(N)ncnn23)[C@H](O)[C@@H]1O)Oc1ccccc1` [RDV], for which the “inhibition of SARS-CoV-2 replication (in words)” value in series [1] is “具有抑制作用”.
